# Test results published in patent publication US20260166128A1, “HUMAN AMYLIN ANALOG, AND DERIVATIVE THEREOF AND USE THEREOF” (priority 2022, published 2026).
# Numbered stars: 1 amine (or outer) side, 2 acyl side, 3 side chain; on linkers, the order of the positions; unused ones are H or OH. Bridge positions count the residues as written; N and C are the ends. Square brackets hold non-standard residues; d marks the D form. Side chains are listed from the residue outwards. Peptide text beside a SMILES is read from it. * marks the point of attachment. C20 diacid = O=C(O)CCCCCCCCCCCCCCCCCCC(=O)*; X1 = N[C@@H]1CCN([*:1])[C@@H]1C(=O)[*:2]; γGlu = O=C(O)[C@H](CCC(=O)[*:2])N[*:1]; Hyp = O=C(O)[C@@H]1C[C@@H](O)CN1; hArg = N=C(N)NCCCC[C@H](N)C(=O)O; Orn = NCCC[C@H](N)C(=O)O; AEEA = NCCOCCOCC(=O)O; Aoc = NCCCCCCCC(=O)O
# Legend:
# human amylin receptor = biological target: T1, human amylin receptor (Homo sapiens, UniProt O60896+P30988); test: Luciferase assay of amylin derivatives in amylin receptor/CRE-luc CHO cell line; assay type: cell-based; conditions: CHO-K1/Ga15/AMY3 CRE-luc cells, 24 hours incubation, F12 medium containing 10% FBS; read-out: EC50
# T1 construct: host or cells: CHO-K1/Ga15/AMY3 cells, further stably transfected with a CRE-luciferase plasmid
# T1 sequence (P30988 25-474): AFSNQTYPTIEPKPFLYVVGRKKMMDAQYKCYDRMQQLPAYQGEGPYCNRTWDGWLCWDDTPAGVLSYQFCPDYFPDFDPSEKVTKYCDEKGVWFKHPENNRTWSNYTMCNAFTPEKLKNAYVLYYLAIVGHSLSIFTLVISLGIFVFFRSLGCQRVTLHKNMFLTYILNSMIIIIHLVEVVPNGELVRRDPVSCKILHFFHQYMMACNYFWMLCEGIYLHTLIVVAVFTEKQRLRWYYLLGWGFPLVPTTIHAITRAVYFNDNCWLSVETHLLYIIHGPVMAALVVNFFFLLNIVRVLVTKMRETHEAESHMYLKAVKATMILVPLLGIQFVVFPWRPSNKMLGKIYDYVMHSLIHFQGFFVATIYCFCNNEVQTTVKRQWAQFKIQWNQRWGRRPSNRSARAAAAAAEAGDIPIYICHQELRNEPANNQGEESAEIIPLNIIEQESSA
# T1 sequence (O60896 24-148 partner): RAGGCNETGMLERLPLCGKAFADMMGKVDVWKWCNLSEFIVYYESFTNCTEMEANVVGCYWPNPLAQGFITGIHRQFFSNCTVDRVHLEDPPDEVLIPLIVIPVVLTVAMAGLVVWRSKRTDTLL
# Method: The experiment was intended to detect the activity or efficacy of the amylin derivatives on a human amylin receptor in vitro by luciferase assay.
# 50 μL of growth medium (F12 medium containing 10% FBS) was added into each well of a white 96-well plate, and the stably transfected amylin/CRE-lue CHO cells were inoculated into the white 96-well plate at a density of about 20,000 cells/well for activity determination.
# [1] = Freeze-thaw stability of derivatives (freeze-thaw yield by liquid chromatography); assay type: physicochemical
# Method: The freeze-dried powder of the polypeptide analog derivative prepared in Example 1 was mixed with a buffer solution according to a mass-volume ratio of 0.2 mg/ml, the polypeptide was dissolved with 20 mM phosphate buffer solution (PB) (pH 7.0), the sample was stored at −20° C. for overnight storage, and then the sample was taken out to be restored to room temperature for thawing. During the experiment, property changes of the polypeptide after dissolution and freezing and thawing were observed and recorded respectively, and concentrations of the polypeptide before and after the freezing and thawing were detected by the following liquid chromatography method: Materials and equipment: high-performance liquid chromatographic instrument (Agilent 1200), ultrapure water (18.2 MΩ self-manufactured ultrapure water), acetonitrile (HPLC grade), and trifluoroacetic acid (HPLC grade); and reversed-phase chromatographic column: […] A sample to be tested was centrifuged at 10,000 rpm and 4° C. for 3 minutes, and a supernatant was taken and added into a liquid-phase sample injection bottle. […] A freeze-thaw yield was calculated by the following formula: freeze-thaw yield=concentration of polypeptide after the freezing and thawing/concentration of polypeptide before the freezing and thawing.
Structure (SMILES),EC50 (human amylin receptor) [nM],other results
CC[C@H](C)[C@H](NC(=O)[C@@H]1CCCN1C(=O)CNC(=O)[C@H](CC(C)C)NC(=O)[C@H](CC(N)=O)NC(=O)[C@H](CCCCNC(=O)COCCOCCNC(=O)COCCOCCNC(=O)CC[C@H](NC(=O)CCCCCCCCCCCCCCCCCCC(=O)O)C(=O)O)NC(=O)[C@H](CO)NC(=O)[C@H](CO)NC(=O)[C@H](Cc1c[nH]cn1)NC(=O)[C@H](CCCNC(=N)N)NC(=O)[C@H](CC(C)C)NC(=O)[C@H](Cc1ccccc1)NC(=O)[C@H](CC(=O)O)NC(=O)[C@H](C)NC(=O)[C@H](CC(C)C)NC(=O)[C@H](CCCNC(=N)N)NC(=O)[C@H](CCC(N)=O)NC(=O)[C@@H](NC(=O)[C@H](C)NC(=O)[C@@H]1CSSC[C@H](NC(=O)[C@@H](N)CCCNC(=N)N)C(=O)N[C@@H](CC(N)=O)C(=O)N[C@@H]([C@@H](C)O)C(=O)N[C@@H](C)C(=O)N[C@@H]([C@@H](C)O)C(=O)N1)[C@@H](C)O)C(=O)N[C@@H](CC(C)C)C(=O)N1CCC[C@H]1C(=O)N1CCC[C@H]1C(=O)N[C@H](C(=O)N[C@@H](CC(N)=O)C(=O)N[C@H](C(=O)NCC(=O)N[C@@H](CO)C(=O)N[C@@H](CC(N)=O)C(=O)N[C@H](C(=O)N1C[C@H](O)C[C@H]1C(N)=O)[C@@H](C)O)C(C)C)[C@@H](C)O [PD091] (H-RCNTATCATQRLADFLRHSSK([AEEA-AEEA-γGlu-C20 diacid])NLGPILPPTNVGSNT[Hyp]-NH2; disulfide 2-7),0.03,–
CC[C@H](C)[C@H](NC(=O)[C@@H]1CCCN1C(=O)CCCCCCCNC(=O)[C@H](CC(C)C)NC(=O)[C@H](CC(N)=O)NC(=O)[C@H](CC(N)=O)NC(=O)[C@H](CO)NC(=O)[C@H](CO)NC(=O)[C@H](Cc1c[nH]cn1)NC(=O)[C@H](CCCNC(=N)N)NC(=O)[C@H](CC(C)C)NC(=O)[C@H](Cc1ccccc1)NC(=O)[C@H](CC(=O)O)NC(=O)[C@H](C)NC(=O)[C@H](CC(C)C)NC(=O)[C@H](CCCNC(=N)N)NC(=O)[C@H](CCC(N)=O)NC(=O)[C@@H](NC(=O)[C@H](C)NC(=O)[C@@H]1CSSC[C@H](NC(=O)[C@H](CCCCN)NC(=O)CC[C@H](NC(=O)CCCCCCCCCCCCCCCCCCC(=O)O)C(=O)O)C(=O)N[C@@H](CC(N)=O)C(=O)N[C@@H]([C@@H](C)O)C(=O)N[C@@H](C)C(=O)N[C@@H]([C@@H](C)O)C(=O)N1)[C@@H](C)O)C(=O)N[C@@H](CC(C)C)C(=O)N1CCC[C@H]1C(=O)N1CCC[C@H]1C(=O)N[C@H](C(=O)N[C@@H](CC(N)=O)C(=O)N[C@H](C(=O)NCC(=O)N[C@@H](CO)C(=O)N[C@@H](CC(N)=O)C(=O)N[C@H](C(=O)N1CCC[C@H]1C(N)=O)[C@@H](C)O)C(C)C)[C@@H](C)O [PD174] ({C20 diacid-γGlu}-KCNTATCATQRLADFLRHSSNNL[Aoc]PILPPTNVGSNTP-NH2; disulfide 2-7),0.046,–
CC[C@H](C)[C@H](NC(=O)[C@@H]1CCCN1C(=O)[C@H](CCCCNC(=O)CC[C@H](NC(=O)CCCCCCCCCCCCCCCCCCC(=O)O)C(=O)O)NC(=O)[C@H](CC(C)C)NC(=O)[C@H](CC(N)=O)NC(=O)[C@H](CC(N)=O)NC(=O)[C@H](CO)NC(=O)[C@H](CO)NC(=O)[C@H](Cc1c[nH]cn1)NC(=O)[C@H](CCCNC(=N)N)NC(=O)[C@H](CC(C)C)NC(=O)[C@H](Cc1ccccc1)NC(=O)[C@H](CC(=O)O)NC(=O)[C@H](C)NC(=O)[C@H](CC(C)C)NC(=O)[C@H](CCCNC(=N)N)NC(=O)[C@H](CCC(N)=O)NC(=O)[C@@H](NC(=O)[C@H](C)NC(=O)[C@@H]1CSSC[C@H](NC(=O)[C@@H](N)CCCN)C(=O)N[C@@H](CC(N)=O)C(=O)N[C@@H]([C@@H](C)O)C(=O)N[C@@H](C)C(=O)N[C@@H]([C@@H](C)O)C(=O)N1)[C@@H](C)O)C(=O)N[C@@H](CC(C)C)C(=O)N1CCC[C@H]1C(=O)N1CCC[C@H]1C(=O)N[C@H](C(=O)N[C@@H](CC(N)=O)C(=O)N[C@H](C(=O)NCC(=O)N[C@@H](CO)C(=O)N[C@@H](CC(N)=O)C(=O)N[C@H](C(=O)N1C[C@H](O)C[C@H]1C(N)=O)[C@@H](C)O)C(C)C)[C@@H](C)O [PD075] (H-[Orn]CNTATCATQRLADFLRHSSNNLK([γGlu-C20 diacid])PILPPTNVGSNT[Hyp]-NH2; disulfide 2-7),0.048,–
CC[C@H](C)[C@H](NC(=O)[C@@H]1CCCN1C(=O)[C@H](CCCCNC(=O)CC[C@H](NC(=O)CCCCCCCCCCCCCCCCCCC(=O)O)C(=O)O)NC(=O)[C@H](CC(C)C)NC(=O)[C@H](CC(N)=O)NC(=O)[C@H](CC(N)=O)NC(=O)[C@H](CO)NC(=O)[C@H](CO)NC(=O)[C@H](Cc1c[nH]cn1)NC(=O)[C@H](CCCNC(=N)N)NC(=O)[C@H](CC(C)C)NC(=O)[C@H](Cc1ccccc1)NC(=O)[C@H](CC(=O)O)NC(=O)[C@H](C)NC(=O)[C@H](CC(C)C)NC(=O)[C@H](CCCNC(=N)N)NC(=O)[C@H](CCC(N)=O)NC(=O)[C@@H](NC(=O)[C@H](C)NC(=O)[C@@H]1CSSC[C@H](NC(=O)[C@@H](N)CCCCNC(=N)N)C(=O)N[C@@H](CC(N)=O)C(=O)N[C@@H]([C@@H](C)O)C(=O)N[C@@H](C)C(=O)N[C@@H]([C@@H](C)O)C(=O)N1)[C@@H](C)O)C(=O)N[C@@H](CC(C)C)C(=O)N1CCC[C@H]1C(=O)N1CCC[C@H]1C(=O)N[C@H](C(=O)N[C@@H](CC(N)=O)C(=O)N[C@H](C(=O)NCC(=O)N[C@@H](CO)C(=O)N[C@@H](CC(N)=O)C(=O)N[C@H](C(=O)N1C[C@H](O)C[C@H]1C(N)=O)[C@@H](C)O)C(C)C)[C@@H](C)O [PD077] (H-[hArg]CNTATCATQRLADFLRHSSNNLK([γGlu-C20 diacid])PILPPTNVGSNT[Hyp]-NH2; disulfide 2-7),0.034,–
CC[C@H](C)[C@H](NC(=O)[C@@H]1CCCN1C(=O)[C@H](CCCCN)NC(=O)[C@H](CC(C)C)NC(=O)[C@H](CC(N)=O)NC(=O)[C@H](CC(N)=O)NC(=O)[C@H](CO)NC(=O)[C@H](CO)NC(=O)[C@H](Cc1c[nH]cn1)NC(=O)[C@H](CCCNC(=N)N)NC(=O)[C@H](CC(C)C)NC(=O)[C@H](Cc1ccccc1)NC(=O)[C@H](CC(=O)O)NC(=O)[C@H](C)NC(=O)[C@H](CC(C)C)NC(=O)[C@H](CCCNC(=N)N)NC(=O)[C@H](CCC(N)=O)NC(=O)[C@@H](NC(=O)[C@H](C)NC(=O)[C@@H]1CSSC[C@H](NC(=O)[C@H](CCCCN)NC(=O)CC[C@H](NC(=O)COCCOCCNC(=O)COCCOCCNC(=O)CCCCCCCCCCCCCCCCCCC(=O)O)C(=O)O)C(=O)N[C@@H](CC(N)=O)C(=O)N[C@@H]([C@@H](C)O)C(=O)N[C@@H](C)C(=O)N[C@@H]([C@@H](C)O)C(=O)N1)[C@@H](C)O)C(=O)N[C@@H](CC(C)C)C(=O)N1CCC[C@H]1C(=O)N1CCC[C@H]1C(=O)N[C@H](C(=O)N[C@@H](CC(N)=O)C(=O)N[C@H](C(=O)NCC(=O)N[C@@H](CO)C(=O)N[C@@H](CC(N)=O)C(=O)N[C@H](C(=O)N1C[C@H](O)C[C@H]1C(N)=O)[C@@H](C)O)C(C)C)[C@@H](C)O [PD176] ({C20 diacid-AEEA-AEEA-γGlu}-KCNTATCATQRLADFLRHSSNNLKPILPPTNVGSNT[Hyp]-NH2; disulfide 2-7),0.029,–
CC[C@H](C)[C@H](NC(=O)[C@@H]1CCCN1C(=O)[C@H](CCCCNC(=O)CC[C@H](NC(=O)CCCCCCCCCCCCCCCCCCC(=O)O)C(=O)O)NC(=O)[C@H](CC(C)C)NC(=O)[C@H](CC(N)=O)NC(=O)[C@H](CC(N)=O)NC(=O)[C@H](CO)NC(=O)[C@H](CO)NC(=O)[C@H](Cc1c[nH]cn1)NC(=O)[C@H](CCCNC(=N)N)NC(=O)[C@H](CC(C)C)NC(=O)[C@H](Cc1ccccc1)NC(=O)[C@H](CCC(=O)O)NC(=O)[C@H](C)NC(=O)[C@H](CC(C)C)NC(=O)[C@H](CCCNC(=N)N)NC(=O)[C@H](CCC(N)=O)NC(=O)[C@@H](NC(=O)[C@H](C)NC(=O)[C@@H]1CSSC[C@H](NC(=O)[C@@H](N)CCCNC(=N)N)C(=O)N[C@@H](CC(N)=O)C(=O)N[C@@H]([C@@H](C)O)C(=O)N[C@@H](C)C(=O)N[C@@H]([C@@H](C)O)C(=O)N1)[C@@H](C)O)C(=O)N[C@@H](CC(C)C)C(=O)N1CCC[C@H]1C(=O)N1CCC[C@H]1C(=O)N[C@H](C(=O)N[C@@H](CC(N)=O)C(=O)N[C@H](C(=O)NCC(=O)N[C@@H](CO)C(=O)N[C@@H](CC(N)=O)C(=O)N[C@H](C(=O)N1CC[C@@H](N)[C@H]1C(N)=O)[C@@H](C)O)C(C)C)[C@@H](C)O [PD061] (H-RCNTATCATQRLAEFLRHSSNNLK([γGlu-C20 diacid])PILPPTNVGSNT[X1]-NH2; disulfide 2-7; N-terminus assumed),–,"Dissolution property ([1]; appearance after dissolution at 0.2 mg/ml in 20 mM phosphate buffer solution (PB) (pH 7.0)): Clear; Freeze storage property ([1]; appearance after overnight storage at −20° C. and thawing to room temperature, 0.2 mg/ml in 20 mM PB (pH 7.0)): Clear; Freeze storage yield ([1]; concentration of polypeptide after freezing and thawing / concentration before, by liquid chromatography, −20° C. overnight): 100.32%"
